In patent US9718785B2, “1,3-Disubstituted cyclopentane derivatives” (MERCK PATENT GMBH, priority 2013, dated 2017):

Target: T1, human recombinant full-length fatty acid synthase (FASN) (Homo sapiens, UniProt P49327)
T1 construct: 40 nM human recombinant full-length fatty acid synthase (produced in-house in SF9 cells); made in house; host or cells: SF9 insect cells
Experiment: Biochemical activity testing of human fatty acid synthase FASN (NADPH fluorescence intensity enzyme assay)
Details: human recombinant FASN, enzyme assay
Excerpt: Biochemical Activity Testing of Human Fatty Acid Synthase FASN
Fatty acid synthase FASN is a multifunctional enzyme with seven catalytic activities thereby synthesising long chain fatty acids especially palmitoyl-CoA in the presence of co-factor NADPH starting from the substrates acetyl-CoA and malonyl-CoA. The reductive synthesis is realized by the oxidation of NADPH to NADP. Since NADPH has a high fluorescence intensity quantum yield compared to NADP with excitation at 340 nm and emission at 460 nm, the reaction can be monitored via the decrease in fluorescence intensity. The biochemical FASN activity testing was performed as 384 well two-time-point kinetic fluorescence intensity assay format in Greiner low volume medium binding 384-well black microtiter plates in a total assay volume of 8 μl and was used for high throughput screen. In each well 3 μl 40 nM human recombinant full-length fatty acid synthase (produced in-house in SF9 cells) were dispensed in the following assay buffer: 50 mM potassium phosphate buffer pH 7.0, 0.005% (w/v) BSA, 2 mM Glutathione, 0.02% Tween-20. Then 2 μl of 200 μM NADPH in assay buffer were added, followed by the addition of the test compounds in 10 dilution concentrations starting with 30 μM (final concentration) to get a final DMSO content of 1% (v/v). The mixture was incubated for at least 15 min at room temperature. After the pre-incubation the enzymatic reaction was started by the addition of 2 μl substrate solution (80 μM acetyl-CoA, 240 μM malonyl-CoA). A first fluorescence intensity measurement (time point one) was performed with an Envision multimode reader (Perkin Elmer LAS Germany GmbH) at excitation wavelength 340 nm (lamp mode) and emission wavelength 460 nm. The reaction was incubated for 30 minutes at room temperature. After this the fluorescence intensity was measured again in the Envision using the same parameters as described above (second time point measurement). The data were analysed by subtracting the first time point measurement value from the second time point measurement value (after the enzymatic reaction). The differences of the emission signals were determined. These reflect directly the conversion rate of NADPH. The full value used was the inhibitor-free reaction. A pharmacological zero value was used like GSK837149A (Sigma-Aldrich) in a final concentration of 5-10 μM. The inhibitory values (IC50) were determined using either the program Symyx Assay Explorer® or Condosseo® from GeneData.

T1 sequence (P49327 whole entry): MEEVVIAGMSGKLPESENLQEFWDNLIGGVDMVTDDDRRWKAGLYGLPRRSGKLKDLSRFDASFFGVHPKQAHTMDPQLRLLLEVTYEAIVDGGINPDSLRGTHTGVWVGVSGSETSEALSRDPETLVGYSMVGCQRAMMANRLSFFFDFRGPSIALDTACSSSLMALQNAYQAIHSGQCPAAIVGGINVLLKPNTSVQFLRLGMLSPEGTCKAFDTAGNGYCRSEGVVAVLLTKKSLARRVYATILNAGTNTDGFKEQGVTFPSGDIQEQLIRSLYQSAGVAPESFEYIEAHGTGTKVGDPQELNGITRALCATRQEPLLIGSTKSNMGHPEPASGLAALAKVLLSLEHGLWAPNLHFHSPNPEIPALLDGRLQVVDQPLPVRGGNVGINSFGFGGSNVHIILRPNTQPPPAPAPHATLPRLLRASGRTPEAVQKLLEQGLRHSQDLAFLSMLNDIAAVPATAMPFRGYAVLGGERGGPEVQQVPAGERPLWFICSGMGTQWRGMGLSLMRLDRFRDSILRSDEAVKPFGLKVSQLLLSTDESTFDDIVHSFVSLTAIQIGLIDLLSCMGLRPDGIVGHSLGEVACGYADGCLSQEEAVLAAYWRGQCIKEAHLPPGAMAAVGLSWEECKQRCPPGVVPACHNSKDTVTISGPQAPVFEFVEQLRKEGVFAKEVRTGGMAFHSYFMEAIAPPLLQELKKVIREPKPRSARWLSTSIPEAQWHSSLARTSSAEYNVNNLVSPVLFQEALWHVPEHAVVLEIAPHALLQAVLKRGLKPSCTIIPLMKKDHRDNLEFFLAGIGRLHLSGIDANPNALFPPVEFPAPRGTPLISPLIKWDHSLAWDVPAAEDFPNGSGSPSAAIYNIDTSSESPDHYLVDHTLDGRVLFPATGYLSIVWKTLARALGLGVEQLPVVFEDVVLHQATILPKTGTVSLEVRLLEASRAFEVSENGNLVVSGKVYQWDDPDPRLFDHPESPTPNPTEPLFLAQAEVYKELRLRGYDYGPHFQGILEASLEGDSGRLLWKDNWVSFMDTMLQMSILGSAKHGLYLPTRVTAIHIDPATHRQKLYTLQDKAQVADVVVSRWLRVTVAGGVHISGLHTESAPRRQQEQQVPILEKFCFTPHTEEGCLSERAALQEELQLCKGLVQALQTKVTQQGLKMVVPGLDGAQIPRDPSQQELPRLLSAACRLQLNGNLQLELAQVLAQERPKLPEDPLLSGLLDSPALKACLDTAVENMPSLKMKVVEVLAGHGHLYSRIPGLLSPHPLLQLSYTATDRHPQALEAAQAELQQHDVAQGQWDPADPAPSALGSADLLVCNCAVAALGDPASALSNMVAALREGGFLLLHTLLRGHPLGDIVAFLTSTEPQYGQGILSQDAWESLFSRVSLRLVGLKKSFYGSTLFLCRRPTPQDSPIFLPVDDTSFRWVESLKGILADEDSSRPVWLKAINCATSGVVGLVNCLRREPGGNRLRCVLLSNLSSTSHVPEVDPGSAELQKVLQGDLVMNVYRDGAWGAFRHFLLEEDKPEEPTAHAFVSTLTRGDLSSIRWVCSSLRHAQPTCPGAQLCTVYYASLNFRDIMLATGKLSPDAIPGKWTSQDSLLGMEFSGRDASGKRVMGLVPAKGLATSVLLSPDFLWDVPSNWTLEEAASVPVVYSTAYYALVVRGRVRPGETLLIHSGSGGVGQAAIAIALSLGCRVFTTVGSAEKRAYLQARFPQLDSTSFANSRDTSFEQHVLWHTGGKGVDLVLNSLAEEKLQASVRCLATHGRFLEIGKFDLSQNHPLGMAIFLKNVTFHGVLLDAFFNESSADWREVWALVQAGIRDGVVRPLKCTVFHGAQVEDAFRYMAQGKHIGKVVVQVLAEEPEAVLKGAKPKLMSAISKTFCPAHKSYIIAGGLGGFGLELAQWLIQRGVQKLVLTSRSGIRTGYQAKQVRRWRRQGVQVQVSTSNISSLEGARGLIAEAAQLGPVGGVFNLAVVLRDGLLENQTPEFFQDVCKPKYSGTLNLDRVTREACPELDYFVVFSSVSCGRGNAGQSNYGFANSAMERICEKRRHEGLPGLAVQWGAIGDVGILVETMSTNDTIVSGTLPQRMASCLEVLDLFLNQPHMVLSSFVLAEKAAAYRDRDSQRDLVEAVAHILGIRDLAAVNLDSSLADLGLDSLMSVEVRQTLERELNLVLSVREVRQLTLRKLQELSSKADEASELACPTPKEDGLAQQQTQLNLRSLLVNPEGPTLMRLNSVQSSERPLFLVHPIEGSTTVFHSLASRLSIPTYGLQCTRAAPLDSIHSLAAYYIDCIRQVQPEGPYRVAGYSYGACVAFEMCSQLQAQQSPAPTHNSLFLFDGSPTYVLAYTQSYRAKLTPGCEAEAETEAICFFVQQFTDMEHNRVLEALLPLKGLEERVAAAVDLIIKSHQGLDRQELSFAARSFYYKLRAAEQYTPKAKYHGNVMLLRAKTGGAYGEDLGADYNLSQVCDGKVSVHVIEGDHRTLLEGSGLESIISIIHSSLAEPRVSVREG

Structure (SMILES) | IC50
CCNC(=O)[C@H]1CC[C@@H](n2cnnc2-c2ccc(-c3nc4ccccc4o3)cc2)C1 [Compound A29, (1S,3R)-3-[3-(4-benzoxazol-2-yl-phenyl)-[1,2,4]triazol-4-yl]-cyclopentanecarboxylic acid ethylamide] | < 0.3 µM
CCNC(=O)[C@H]1CC[C@@H](n2cnnc2-c2ccc(-c3ccc4cc[nH]c4c3)cc2)C1 [Compound A30, (1S,3R)-3-{3-[4-(1H-indol-6-yl)-phenyl]-[1,2,4]triazol-4-yl}-cyclopentanecarboxylic acid ethylamide] | < 0.3 µM
CCNC(=O)[C@H]1CC[C@@H](n2cnnc2-c2ccc(-c3ccc(Cl)cc3)cc2)C1 [Compound A31, (1S,3R)-3-[3-(4′-chloro-biphenyl-4-yl)[1,2,4]triazol-4-yl]-cyclopentanecarboxylic acid ethylamide] | < 0.3 µM
CCNC(=O)[C@H]1CC[C@@H](n2cnnc2-c2ccc(-c3ccc(C#N)cc3)cc2)C1 [Compound A32, (1S,3R)-3-[3-(4′-cyano-biphenyl-4-yl)-[1,2,4]triazol-4-yl]-cyclopentanecarboxylic acid ethylamide] | < 0.3 µM
CCNC(=O)[C@H]1CC[C@@H](n2cnnc2-c2ccc(-c3nc4ccccc4s3)cc2)C1 [Compound A33, (1S,3R)-3-[3-(4-benzothiazol-2-yl-phenyl)-[1,2,4]triazol-4-yl]-cyclopentanecarboxylic acid ethylamide] | < 0.3 µM
CCNC(=O)[C@H]1CC[C@@H](n2cnnc2-c2ccc(-c3cccc4[nH]ncc34)cc2)C1 [Compound A35, (1S,3R)-3-{3-[4-(1H-indazol-4-yl)-phenyl]-[1,2,4]triazol-4-yl}-cyclopentanecarboxylic acid ethylamide] | < 0.3 µM
CCC(=O)N[C@H]1CC[C@@H](n2cnnc2-c2ccc(-c3nc4ccccc4o3)cc2)C1 [Compound A37, N-{(1S,3R)-3-[3-(4-benzoxazol-2-yl-phenyl)-[1,2,4]triazol-4-yl]-cyclopentyl}-propionamide] | < 0.3 µM
CCC(=O)N[C@H]1CC[C@@H](n2cnnc2-c2ccc(-c3ccc(Cl)cc3)cc2)C1 [Compound A39, N-{(1S,3R)-3-[3-(4′-chloro-biphenyl-4-yl)-[1,2,4]triazol-4-yl]-cyclopentyl}-propionamide] | < 0.3 µM
CCC(=O)N[C@H]1CC[C@@H](n2cnnc2-c2ccc(-c3ccc(C#N)cc3)cc2)C1 [Compound A40, N-{(1S,3R)-3-[3-(4′-cyano-biphenyl-4-yl)-[1,2,4]triazol-4-yl]-cyclopentyl}-propionamide] | < 0.3 µM
CCC(=O)N[C@H]1CC[C@@H](n2cnnc2-c2ccc(-c3cccc4[nH]ncc34)cc2)C1 [Compound A42, N-((1S,3R)-3-{3-[4-(1H-indazol-4-yl)-phenyl]-[1,2,4]triazol-4-yl}-cyclopentyl)-propionamide] | < 0.3 µM
CCC(=O)N[C@H]1CC[C@@H](n2cnnc2-c2ccc(-c3ccc4ncsc4c3)cc2)C1 [Compound A43, N-{(1S,3R)-3-[3-(4-benzothiazol-6-yl-phenyl)-[1,2,4]triazol-4-yl]-cyclopentyl}-propionamide] | < 0.3 µM
CCC(=O)N[C@H]1CC[C@@H](n2cnnc2-c2ccc(-c3ccc4cc[nH]c4c3)cc2)C1 [Compound A44, N-((1S,3R)-3-{3-[4-(1H-indol-6-yl)-phenyl]-[1,2,4]triazol-4-yl}-cyclopentyl)-propionamide] | < 0.3 µM
CCC(=O)N[C@H]1CC[C@@H](n2nncc2-c2ccc(-c3ccc(C#N)cc3)cc2)C1 [Compound A58, N-{(1S,3R)-3-[5-(4′-Cyano-biphenyl-4-yl)-[1,2,3]triazol-1-yl]-cyclopentyl}-propionamide] | < 0.3 µM
CCC(=O)N[C@H]1CC[C@@H](n2nncc2-c2ccc(-c3ccc4cc[nH]c4c3)cc2)C1 [Compound A59, N-((1S,3R)-3-{5-[4-(1H-Indol-6-yl)-phenyl]-[1,2,3]triazol-1-yl}-cyclopentyl)-propionamide] | < 0.3 µM
CCC(=O)N[C@H]1CC[C@@H](n2nncc2-c2ccc(-c3ccc4ncsc4c3)cc2)C1 [Compound A60, N-{(1S,3R)-3-[5-(4-Benzothiazol-6-yl-phenyl)-[1,2,3]triazol-1-yl]-cyclopentyl}-propionamide] | < 0.3 µM
CCC(=O)N[C@H]1CC[C@@H](n2nncc2-c2ccc(-c3ccc4c(cnn4C)c3)cc2)C1 [Compound A61, N-((1S,3R)-3-{5-[4-(1-Methyl-1H-indazol-5-yl)-phenyl]-[1,2,3]triazol-1-yl}-cyclopentyl)-propionamide] | < 0.3 µM
CCC(=O)N[C@H]1CC[C@@H](n2nncc2-c2ccc(-c3ccc(C#N)cc3F)cc2)C1 [Compound A62, N-{(1S,3R)-3-[5-(4′-Cyano-2′-fluoro-biphenyl-4-yl)-[1,2,3]triazol-1-yl]-cyclopentyl}-propionamide] | < 0.3 µM
CCC(=O)N[C@H]1CC[C@@H](n2nncc2-c2ccc(-c3ccc4cnn(C)c4c3)cc2)C1 [Compound A63, N-((1S,3R)-3-{5-[4-(1-Methyl-1H-indazol-6-yl)-phenyl]-[1,2,3]triazol-1-yl}-cyclopentyl)-propionamide] | < 0.3 µM
CCC(=O)N[C@H]1CC[C@@H](n2nncc2-c2ccc(-c3ccc(-c4cnn(C)c4)cc3)cc2)C1 [Compound A64, N-((1S,3R)-3-{5-[4′-(1-Methyl-1H-pyrazol-4-yl)-biphenyl-4-yl]-[1,2,3]triazol-1-yl}-cyclopentyl)-propionamide] | < 0.3 µM
CCNC(=O)[C@H]1CC[C@@H](n2cnnc2-c2ccc(-c3ccc4ncsc4c3)cc2)C1 [Compound A65, (1S,3R)-3-[3-(4-Benzothiazol-6-yl-phenyl)-[1,2,4]triazol-4-yl]-cyclopentanecarboxylic acid ethylamide] | < 0.3 µM
O=C(N[C@H]1CC[C@@H](n2nncc2-c2ccc(-c3nc4ccccc4o3)cc2)C1)C1CC1 [Compound A66, Cyclopropanecarboxylic acid {(1S,3R)-3-[5-(4-benzooxazol-2-yl-phenyl)-[1,2,3]triazol-1-yl]-cyclopentyl}-amide] | < 0.3 µM
O=C(CC1CCCC1)N[C@H]1CC[C@@H](n2nncc2-c2ccc(-c3nc4ccccc4o3)cc2)C1 [Compound A67, N-{(1S,3R)-3-[5-(4-Benzoxazol-2-yl-phenyl)-[1,2,3]triazol-1-yl]-cyclopentyl}-2-cyclopentyl-acetamide] | 0.3 to 3 µM
O=C(N[C@H]1CC[C@@H](n2nncc2-c2ccc(-c3nc4ccccc4o3)cc2)C1)[C@H]1CCCO1 [Compound A68, (R)-Tetrahydro-furan-2-carboxylic acid {(1S,3R)-3-[5-(4-benzooxazol-2-yl-phenyl)-[1,2,3]triazol-1-yl]-cyclopentyl}-amide] | 0.3 to 3 µM
O=C(N[C@H]1CC[C@@H](n2nncc2-c2ccc(-c3nc4ccccc4o3)cc2)C1)[C@@H]1CCCO1 [Compound A69, (S)-Tetrahydro-furan-2-carboxylic acid {(1S,3R)-3-[5-(4-benzooxazol-2-yl-phenyl)-[1,2,3]triazol-1-yl]-cyclopentyl}-amide] | < 0.3 µM
CCC(=O)N[C@H]1CC[C@@H](n2nncc2-c2ccc(-c3cnc4ccccc4c3)cc2)C1 [Compound A70, N-{(1S,3R)-3-[5-(4-Quinolin-3-yl-phenyl)-[1,2,3]triazol-1-yl]-cyclopentyl}-propionamide] | < 0.3 µM
CCC(=O)N[C@H]1CC[C@@H](n2nncc2-c2ccc(-c3ccc4c(ccn4C)c3)cc2)C1 [Compound A71, N-((1S,3R)-3-{5-[4-(1-Methyl-1H-indol-5-yl)-phenyl]-[1,2,3]triazol-1-yl}-cyclopentyl)-propionamide] | < 0.3 µM
CCC(=O)N[C@H]1CC[C@@H](n2nncc2-c2ccc(-c3ccc4cn[nH]c4c3)cc2)C1 [Compound A72, N-((1S,3R)-3-{5-[4-(1H-Indazol-6-yl)-phenyl]-[1,2,3]triazol-1-yl}-cyclopentyl)-propionamide] | < 0.3 µM
CCC(=O)N[C@H]1CC[C@@H](n2nncc2-c2ccc(-c3ccc4[nH]cnc4c3)cc2)C1 [Compound A73, N-((1S,3R)-3-{5-[4-(1H-Benzimidazol-5-yl)-phenyl]-[1,2,3]triazol-1-yl}-cyclopentyl)-propionamide] | < 0.3 µM
CCC(=O)N[C@H]1CC[C@@H](n2nncc2-c2ccc(-c3ccc4[nH]ncc4c3)cc2)C1 [Compound A74, N-((1S,3R)-3-{5-[4-(1H-Indazol-5-yl)-phenyl]-[1,2,3]triazol-1-yl}-cyclopentyl)-propionamide] | < 0.3 µM
CCC(=O)N[C@H]1CC[C@@H](n2nncc2-c2ccc(-c3ccc(Cl)c(F)c3)cc2)C1 [Compound A75, N-{(1S,3R)-3-[5-(4′-Chloro-3′-fluoro-biphenyl-4-yl)-[1,2,3]triazol-1-yl]-cyclopentyl}-propionamide] | < 0.3 µM
